# Target: T1, P2X4/P2X7/Pannexin-1 channels (Mus musculus, UniProt Q9JJX6)
# T1 construct: endogenous in cells; host or cells: 4T1.2 mouse breast cancer cells
# T1 sequence (Q9JJX6 1-388): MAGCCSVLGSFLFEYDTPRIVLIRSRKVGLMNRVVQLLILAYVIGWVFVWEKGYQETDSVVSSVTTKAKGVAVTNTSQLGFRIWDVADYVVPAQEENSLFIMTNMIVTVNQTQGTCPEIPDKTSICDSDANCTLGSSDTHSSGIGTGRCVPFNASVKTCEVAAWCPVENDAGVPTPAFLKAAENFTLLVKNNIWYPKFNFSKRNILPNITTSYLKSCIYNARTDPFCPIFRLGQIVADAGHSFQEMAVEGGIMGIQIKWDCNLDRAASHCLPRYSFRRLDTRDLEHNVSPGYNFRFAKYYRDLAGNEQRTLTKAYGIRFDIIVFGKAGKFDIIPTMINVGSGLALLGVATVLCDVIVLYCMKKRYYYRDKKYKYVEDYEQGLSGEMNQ
# Experiment: Membrane permeabilization to YOPRO-1
# Type: cell-based
# Settings: 4T1.2 cells, Ivermectin 0.5-32 μM, ATP 0.3-3 mM, 30 min
# Method: FIGS. 3A-3G. Dual roles of ATP and purinergic signaling in Ivermectin's killing. FIG. 3A: Depletion of extracellular ATP with Apyrase (2500 μunits/ml) exacerbates killing of 4T1.2 cell by Ivermectin. FIG. 3B: Extracellular Ca^2− and ATP contain Ivermectin-induced cell swelling. 4T1.2 cells were treated with 32 μM Ivermectin for 4 h in the presence of 1 mM EDTA or 2500 μunits/ml Apyrase. FIG. 3C: Ivermectin (0.5-32 μM) and high concentrations of extracellular ATP (0.3-3 mM) synergistically open pannexin-1 channels and permeabilize the membrane on live cells (7AAD-positive dead cells were gated out). 4T1.2 cells were treated for 30 min as indicated in the presence of 7 AAD and 5 μM YOPRO-1. FIG. 3D: Analysis of supernatants from Ivermectin-treated murine and human TNBC cells showing rapid release of ATP followed by its transient depletion. Depletion of extracellular ATP with Apyrase (2500 μunits/ml) was used as a positive control. FIG. 3E: Analysis of membrane-proximal ATP levels using cancer cells engineered to express a membrane-bound Luciferase. […] FIG. 3G: The P2X7-specific inhibitor KN-62 (1-10 μM) blocks Ivermectin cytotoxicity (IVM 8-32 μM, 4-48 h treatments). Asterisk (*) indicates p<0.05 relative to untreated or Ivermectin alone controls, respectively.
# FIGS. 10A-10L. Extracellular Dual roles of ATP and purinergic signaling in Ivermectin's killing. 4T1.2 cells were treated with Ivermectin for 4 h in the presence of different inhibitors at μM concentrations as indicated. FIG. 10A: The non-specific P2 purinergic receptor inhibitor Suramin (4-400 μM) exacerbates Ivermectin-induced cell death. FIG. 10B: Inhibition of extracellular ATPases with PSB 069 protects against Ivermectin cytotoxicity. FIG. 10C: Blockade of pannexin-1 channels with Panx-1 mimetic blocking peptide (Anaspec) and Probenecid at μM concentrations as indicated exacerbates killing. […] FIG. 10E: ATP plays a transiently protective role only in the mouse but not human breast cancer cells. 4T1.2 and MDA-MB-231 cells were treated with 32 μM Ivermectin for 4 h in the presence of ATP at mM concentrations as indicated. FIG. 10F: qPCR showing up-regulation of P2X4 and P2X7 receptors on several murine cancer cell lines, including 4T1.2 and DD-Her2/neu (breast), and B16 (melanoma). […] Expression of P2X and P2Y purinergic receptors, NOX family members, GABA, and Glycine receptors was analyzed using publicly available breast cancer cell lines datasets. Statistically significant (p<0.05) up-regulation and down-regulation in breast cancer versus normal cells is shown in red and blue, respectively. FIG. 10H: Correlation between sensitivity to Ivermectin and ATP across various human cancer cell lines. Cancer cells were treated for 24 h with 3 mM ATP or Ivermectin at 16 and 32 μM doses as indicated. […]
compound,measurement,value
CC[C@H](C)[C@H]1O[C@]2(CC[C@@H]1C)C[C@@H]1C[C@@H](C/C=C(\C)[C@@H](O[C@H]3C[C@H](OC)[C@@H](O[C@H]4C[C@H](OC)[C@@H](O)[C@H](C)O4)[C@H](C)O3)[C@@H](C)/C=C/C=C3\CO[C@@H]4[C@H](O)C(C)=C[C@@H](C(=O)O1)[C@]34O)O2 [Ivermectin],opening of channels / permeabilization to YOPRO-1 with ATP,synergized with ATP in opening P2X4/P2X7/Pannexin-1 channels

# From US11058700B2, “Macrocyclic lactones and uses thereof as modulators of purinergic receptors” (City of Hope, priority 2015, dated 2021)
